Earlier results in patent US12599565B2, “Stable benzimidazole formulation” (DEXCEL PHARMA TECHNOLOGIES LTD., priority 2008, dated 2026).

COc1ccc2[nH]c([S+]([O-])Cc3ncc(C)c(OC)c3C)nc2c1 (centres unmarked) [Omeprazole, 5-methoxy-2(((4-methoxy-3,5-dimethyl-2-pyridinyl)methyl)sulfinyl)-1H-benzimidazole]
half life (pH 11): about 300 days | half-life of degradation (pH values below 4.0): less than 10 minutes
